# Results reported in patent US20040002476A1, “Modified fluorinated nucleoside analogues” (priority 2002, published 2004).
# Like-named read-outs stand apart in the source and are kept apart here.
# Test system: HCV replicon
# Assay: HCV replicon system in Huh7 cells (Q-RT-PCR of replicon RNA)
# Conditions: Hepatitis C virus, Huh-7, 96 h
# [1] = read-out: average EC90 value, corrected for cellular toxicity (ΔΔCt vs rDNA/rRNA)
# Protocol: Antiviral testing of candidate compounds for Flaviviridae: The HCV replicon system in Huh7 cells.
# Add the test compound immediate after seeding the cells and incubate for a period of 3 to 7 days at 37° C. in an incubator. Media is then removed, and the cells are prepared for total nucleic acid extraction (including replicon RNA and host RNA). Replicon RNA can then be amplified in a Q-RT-PCR protocol, and quantified accordingly. […] In such experiments, one way to express the antiviral effectiveness of a compound is to subtract the threshold RT-PCR cycle of the test compound with the average threshold RT-PCR cycle of the negative control. This value is called DeltaCt (ΔCt or DCt). […] As a positive control, recombinant interferon alfa-2a (Roferon-A, Hoffmann-Roche, New Jersey, USA) is taken alongside as positive control.
# In a typical setting, a compound might reduce both the host RNA polymerase activity and the replicon-encoded polymerase activity. Therefore, quantification of rRNA (or any other host RNA polymerase I product) or beta-actin mRNA (or any other host RNA polymerase II) and comparison with RNA levels of the no-drug control is a relative measurement of the effect of the test compound on host RNA polymerases.
# With the availability of both the HCV ΔCt data and the rRNA ΔCt, a specificity parameter can be introduced. This parameter is obtained by subtracting both ΔCt values from each other.
# In another typical setting, a compound might reduce the host RNA polymerase activity, but not the host DNA polymerase activity. Therefore, quantification of rDNA or beta-actin DNA (or any other host DNA fragment) and comparison with DNA levels of the no-drug control is a relative measurement of the inhibitory effect of the test compound on cellular DNA polymerases
# With the availability of both the HCV ΔCt data and the rDNA ΔCt, a specificity parameter can be introduced. This parameter is obtained by subtracting both ΔCt values from each other. […] However, compounds with a ΔΔCt value of less than 2, but with limited molecular cytotoxicty (rDNA ΔCT between 0 and 2) may be desired. […]
SMILES,EC90 [1] [µM],"EC90 (read-out: EC90 (1-log reduction of replicon HCV RNA, 3.3 Ct) (converted)) [µM]"
"Nc1ccn([C@@H]2O[C@H](CO)[C@@H](O)C2(F)F)c(=O)n1 [Gemcitabine, β-D-2′,2′-difuoro-2′ deoxycytidine, reference compound]",~0.3,
"Nc1ccn([C@@H]2O[C@H](CO)[C@@H](O)[C@H]2F)c(=O)n1 [2′-Deoxy-2′F-Cytidine, 2′-deoxy-2′-fluorocytidine]",~10,~5
